ChEMBL document CHEMBL1201862, “PubChem BioAssay data set” (2004)
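Values below derive from 48-hour exposures of cells grown in 96-well plates, with endpoints linearly interpolated between the two concentrations bracketing the appropriate inhibition level. GI50 is the concentration that inhibits growth by half.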 Active and inactive are the calls of the source. Rule as the data show it: active = GI50 up to about 1.1 µM and inactive = higher.

Key:
Assay in all cases: growth of human tumour cells (NCI), 48 h
MDA-N = tested on: MDA-N
DLD-1 = tested on: DLD-1
DMS-114 = tested on: DMS-114
DMS-273 = tested on: DMS-273
HOP-18 = tested on: HOP-18
KM-20L2 = tested on: KM-20L2
M19-MEL = tested on: M19-MEL
XF498 = tested on: XF498

| SMILES | GI50 (MDA-N) | GI50 (DLD-1) | GI50 (DMS-114) | GI50 (DMS-273) | GI50 (HOP-18) | GI50 (KM-20L2) | GI50 (M19-MEL) | GI50 (XF498) |
| --- | --- | --- | --- | --- | --- | --- | --- | --- |
| O=C(O)CCC1COc2ccccc2O1 (stereo not given) | > 10 µM (inactive) |  |  |  |  |  |  |  |
| CN(C)CCCn1c2c3ccccc3ccc2c2oc(=O)c3ccccc3c21 |  | 1.47 µM (inactive) | 1.77 µM (inactive) | 1.49 µM (inactive) | 16.6 µM (inactive) | 1.39 µM (inactive) | 3.13 µM (inactive) | 3.85 µM (inactive) |
| O=C1NC(=S)NC(=O)C1=C(O)Nc1ccccc1 | 30 µM (inactive) | 36.6 µM (inactive) | 25.8 µM (inactive) | 28.7 µM (inactive) | 42.4 µM (inactive) | 44.9 µM (inactive) | 37.2 µM (inactive) |  |
| C=C1CC(COc2cc(=O)oc3ccccc23)(c2ccccc2)OC1=O (stereo not given) | 2.05 µM (inactive) |  |  |  |  |  |  |  |
| COc1ccc(-c2nc3c(C(=O)NCCN(C)C)cccc3c3ccccc23)cc1 | 2.26 µM (inactive) |  |  |  |  |  |  |  |
| COc1nc2ccc(Cl)c(C(O)c3ccccc3)c2nc1OC (stereo not given) | 11.5 µM (inactive) |  |  |  |  |  |  |  |
| O=C(c1ccco1)N(C(=S)N1CCN(c2ccccn2)CC1)c1ccccc1 |  | > 100 µM (inactive) | 66.1 µM (inactive) | > 100 µM (inactive) | > 100 µM (inactive) | > 100 µM (inactive) | > 100 µM (inactive) | 60.7 µM (inactive) |
| COc1c2c3c4c(c(OC)c(=O)c5c(O)cc(OC)c(c6c(OC)cc(O)c(c1=O)c63)c54)C(C(C)O)C2C(C)=O (stereo not given) | 0.282 µM (active) |  |  |  |  |  |  |  |
| CCN1CC2(CO)CCC(OC)C34C5CC6C(OC)CC(O)(C5C6OC)C(O)(C(OC)C23)C14 (stereo not given) |  | 80.7 µM (inactive) | > 375 µM (inactive) | > 375 µM (inactive) | > 375 µM (inactive) | > 197 µM (inactive) | > 375 µM (inactive) | > 360 µM (inactive) |
| O=C(O)CCC(NC(=O)c1ccc(Nc2nc3ccc(C(F)(F)F)cc3nc2-c2ccccc2)cc1)C(=O)O (stereo not given) |  | > 100 µM (inactive) | > 100 µM (inactive) | > 100 µM (inactive) | 3.37 µM (inactive) | > 100 µM (inactive) | > 100 µM (inactive) | 98.4 µM (inactive) |
